Results on nine compounds are retold here after US12570662B2, “Substituted pyrrolo[1,2-b]pyridazines as bifunctional degraders of interleukin-1 receptor-associated kinases” (Nurix Therapeutics, Inc., priority 2021, dated 2026).

This test deals with T1, IRAK4 (Homo sapiens, UniProt Q9NWZ3).
T1 construct: C-terminal HiBiT-tagged Jurkat cells (polyclonal cell line or clone 8D5); endogenous in cells; host or cells: Jurkat cells (polyclonal cell line or clone 8D5), HiBiT-tagged
T1 sequence (Q9NWZ3 1-460): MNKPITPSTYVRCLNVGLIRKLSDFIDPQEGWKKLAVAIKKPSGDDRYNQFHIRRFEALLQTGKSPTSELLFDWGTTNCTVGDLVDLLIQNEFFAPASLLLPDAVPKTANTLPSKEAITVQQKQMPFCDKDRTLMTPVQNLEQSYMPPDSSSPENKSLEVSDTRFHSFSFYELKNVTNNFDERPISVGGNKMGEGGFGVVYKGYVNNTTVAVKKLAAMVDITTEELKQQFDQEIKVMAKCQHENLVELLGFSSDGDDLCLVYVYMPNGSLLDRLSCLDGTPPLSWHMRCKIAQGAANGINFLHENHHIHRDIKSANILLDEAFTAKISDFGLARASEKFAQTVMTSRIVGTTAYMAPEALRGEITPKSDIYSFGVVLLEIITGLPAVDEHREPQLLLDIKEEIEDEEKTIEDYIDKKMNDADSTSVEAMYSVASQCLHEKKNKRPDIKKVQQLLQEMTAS
As to the kind of experiment: IRAK4 Degradation HiBit Assay. Type of test: cell-based. To be noted: C-terminal HiBiT-tagged Jurkat cells, 4 hrs incubation; for DC50: % IRAK4 remaining, four-parameter fit (IC50 used as DC50); for Dmax: from fit of % IRAK4 remaining, read-out: Dmax. Summed up: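 Jurkat cells carrying C-terminal HiBiT-tagged IRAK4 (polyclonal or clone 8D5) exposed to compound, 10 μM–0.1 nM final over 11 points, for 4 h at 32 °C. Remaining IRAK4 measured by lytic HiBiT/LgBiT luminescence relative to DMSO. DC50 and Dmax taken from four-parameter variable-slope fits.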
A general note: With HiBiT, luminescence reflects the tagged protein that the partner subunit can reach.

A word on the DC50: it is the concentration giving 50% degradation. One may read the Dmax as the greatest extent of degradation seen. Consider `CC(C)Nc1cc(-c2ccc3cc(C#N)cnn23)ncc1-c1nnc(N2CCN(CC3CCN(c4ccc(N5CCC(=O)NC5=O)cn4)CC3)CC2)s1` [Example 65, 7-(5-{5-[4-({1-[5-(2,4-dioxo-1,3-diazinan-1-yl)pyridin-2-yl]piperidin-4-yl}methyl)piperazin-1-yl]-1,3,4-thiadiazol-2-yl}-4-[(propan-2-yl)amino]pyridin-2-yl)pyrrolo[1,2-b]pyridazine-3-carbonitrile], for which the DC50 came to 43 nM and the Dmax was 110%.
On to `CCNc1cc(-c2ccc3cc(C#N)cnn23)ncc1-c1nnc(N2CCN(CC3CCN(c4ccc(N5CCC(=O)NC5=O)cn4)CC3)CC2)s1` [Example 71, 7-(5-{5-[4-({1-[5-(2,4-dioxo-1,3-diazinan-1-yl)pyridin-2-yl]piperidin-4-yl}methyl)piperazin-1-yl]-1,3,4-thiadiazol-2-yl}-4-(ethylamino)pyridin-2-yl)pyrrolo[1,2-b]pyridazine-3-carbonitrile], for which it took 6 nM to reach half-maximal degradation (DC50) and the Dmax was 110%.
`CC(C)Nc1cc(-c2ccc3cc(C#N)cnn23)ncc1-c1nnc(N2CC3CCC(C2)N3CC2CCN(c3ccc(N4CCC(=O)NC4=O)cn3)CC2)s1` [Example 73, 7-(5-{5-[8-({1-[5-(2,4-dioxo-1,3-diazinan-1-yl)pyridin-2-yl]piperidin-4-yl}methyl)-3,8-diazabicyclo[3.2.1]octan-3-yl]-1,3,4-thiadiazol-2-yl}-4-[(propan-2-yl)amino]pyridin-2-yl)pyrrolo[1,2-b]pyridazine-3-carbonitrile]: the DC50 worked out at 29 nM and the Dmax was 105%.
As to `N#Cc1cnn2c(-c3cc(NC4CC4)c(-c4nnc(N5CCN(CC6CCN(c7ccc(N8CCC(=O)NC8=O)cn7)CC6)CC5)s4)cn3)ccc2c1` [Example 78, 7-[4-(cyclopropylamino)-5-{5-[4-({1-[5-(2,4-dioxo-1,3-diazinan-1-yl)pyridin-2-yl]piperidin-4-yl}methyl)piperazin-1-yl]-1,3,4-thiadiazol-2-yl}pyridin-2-yl]pyrrolo[1,2-b]pyridazine-3-carbonitrile], the DC50 was 19 nM and the Dmax was 111%.
In the case of `CC1(Nc2cc(-c3ccc4cc(C#N)cnn34)ncc2-c2nnc(N3CCN(CC4CCN(c5ccc(N6CCC(=O)NC6=O)cn5)CC4)CC3)s2)COC1` [Example 80, 7-(5-{5-[4-({1-[5-(2,4-dioxo-1,3-diazinan-1-yl)pyridin-2-yl]piperidin-4-yl}methyl)piperazin-1-yl]-1,3,4-thiadiazol-2-yl}-4-[(3-methyloxetan-3-yl)amino]pyridin-2-yl)pyrrolo[1,2-b]pyridazine-3-carbonitrile], half-maximal degradation (DC50) was put at 84 nM and the Dmax is 90%.
With `N#Cc1cnn2c(-c3cc(NC4CC4)c(-c4nnc(N5CCN(CC6CCN(c7ccc(N8CCC(=O)NC8=O)cc7)CC6)CC5)s4)cn3)ccc2c1` [Example 83, 7-[4-(cyclopropylamino)-5-{5-[4-({1-[4-(2,4-dioxo-1,3-diazinan-1-yl)phenyl]piperidin-4-yl}methyl)piperazin-1-yl]-1,3,4-thiadiazol-2-yl}pyridin-2-yl]pyrrolo[1,2-b]pyridazine-3-carbonitrile], the DC50 was determined as 52 nM and the Dmax came to 80%.
Regarding `N#Cc1cnn2c(-c3cc(NC4CCOCC4)c(-c4nnc(N5CC6CCC(C5)N6CC5CCN(c6ccc(N7CCC(=O)NC7=O)cc6)CC5)s4)cn3)ccc2c1` [Example 84, 7-(5-{5-[8-({1-[4-(2,4-dioxo-1,3-diazinan-1-yl)phenyl]piperidin-4-yl}methyl)-3,8-diazabicyclo[3.2.1]octan-3-yl]-1,3,4-thiadiazol-2-yl}-4-[(oxan-4-yl)amino]pyridin-2-yl)pyrrolo[1,2-b]pyridazine-3-carbonitrile], half-maximal degradation (DC50) was put at 24 nM and the Dmax came to 77%.
For the compound `N#Cc1cnn2c(-c3cc(NC4CCOCC4)c(-c4nnc(N5CC6CCC(C5)N6CC5CCN(c6ccc(N7CCC(=O)NC7=O)cn6)CC5)s4)cn3)ccc2c1` [Example 86, 7-(5-{5-[8-({1-[5-(2,4-dioxo-1,3-diazinan-1-yl)pyridin-2-yl]piperidin-4-yl}methyl)-3,8-diazabicyclo[3.2.1]octan-3-yl]-1,3,4-thiadiazol-2-yl}-4-[(oxan-4-yl)amino]pyridin-2-yl)pyrrolo[1,2-b]pyridazine-3-carbonitrile], half-maximal degradation (DC50) was put at 12 nM and the Dmax turned out to be 111%.
Consider `N#Cc1cnn2c(-c3cc(NC4CC4)c(-c4nnc(N5CC6CCC(C5)N6CC5CCN(c6ccc(N7CCC(=O)NC7=O)cn6)CC5)s4)cn3)ccc2c1` [Example 115, 7-[4-(cyclopropylamino)-5-{5-[8-({1-[5-(2,4-dioxo-1,3-diazinan-1-yl)pyridin-2-yl]piperidin-4-yl}methyl)-3,8-diazabicyclo[3.2.1]octan-3-yl]-1,3,4-thiadiazol-2-yl}pyridin-2-yl]pyrrolo[1,2-b]pyridazine-3-carbonitrile], for which it took 48 nM to reach half-maximal degradation (DC50) and the Dmax amounted to 109%.
